In data set [1] the test system is OVCAR-3 ovary adenocarcinoma cell line. The following applies: three day cell proliferation assay; cited from earlier work.
The subject of data set [2] is HCT 116 colon carcinoma cell line. The following applies: three day cell proliferation assay; cited from earlier work.
In data set [3] the test system is LoVo colorectal adenocarcinoma cell line. The following applies: three day cell proliferation assay; cited from earlier work.
For data set [4] the following is noted: mouse, in vivo; cited from earlier work.
The subject of data set [5] is DoTc2 4510 cervix carcinoma cell line. The following applies: three day cell proliferation assay; cited from earlier work.
Data set [6] concerns MG-63 osteosarcoma cell line. The following applies: three day cell proliferation assay; cited from earlier work.
Data set [7] relates to A-172 glioblastoma cell line. The following applies: three day cell proliferation assay; cited from earlier work.
For data set [8], the system named is post-tetraploid HPT1 cells. The experiment in a line: Cell proliferation assay, post-tetraploid HPT1. In kind it is cell-based, human. Conditions: HPT1, five days; for Efficacy (%): average of three experiments; for IC50: geometric average of three experiments. Here is the method: (§1) Cancer cell lines and hTERT-RPE1 retinal pigment epithelial cells were purchased from the American Type Culture Collection (ATCC) (Manassas, VA, U.S.A.) from 2011 to 2014 [41] and cultured in ATCC-recommended media. All experiments were carried out within nine passages of the original vials from ATCC who authenticated the cancer cell lines by short tandem repeat analysis. We verified the mutant status of seven frequently mutated cancer genes (i.e., BRAF, CDKN2A, CTNNB1, EGFR, KRAS, PIK3CA and TP53) by full exome or targeted sequencing. Sequencing results were compared to COSMIC version 75 of the Genomics of Drug Sensitivity in Cancer data base and provided additional authentication of the identity of the cell lines. The isolation and characterization of post-tetraploid clones from HCT 116 has been described previously. The mutation status of the CDKN2A, CTNNB1, KRAS and PIK3CA genes were confirmed by sequence analysis in both the HCT 116 parental cell line and post-tetraploid clones. All experiments were carried out within nine passages of the original cell stocks that were transferred from the Max Planck Institute of Biochemistry (Martinsried, Germany) to Netherlands Translational Research Center.
(§2) Cell proliferation assays were carried out as described using ATPlite 1step™ (Perkin Elmer, Groningen, The Netherlands). Exposure time was 72 or 120 hours as indicated in the Legends to the Figures. Percentage growth was calculated, relative to the growth of unexposed cells, and relative IC50s were fitted using a four-parameter logistics curve (XLfit 5.3, IDBS). For Figure 4A and 7 dose response curves were redrawn in Prism. To compare the inhibitory potency of compounds in proliferation assays with HCT 116 parental and tetraploid clones, pIC50 (−^10logIC50) values were compared in three independent experiments. A two-tailed Student's t-test was performed to determine whether differences in sensitivity (ΔpIC50) were statistically significant. Caspase 3/7 activity of cancer cells was measured using Caspase-Glo 3/7 Assay kit (cat no. G8093, Promega, Madison USA). Viability of T-ALL cell samples was determined using ATPlite and exposure of 72 hours as described previously.

Data set [9] deals with 66 cancer cell lines (44 cell lines). Set-up: method as in earlier work. The following applies: cited from earlier work.
Data set [10] relates to post-tetraploid HPT4 cells. Briefly: Cell proliferation assay, post-tetraploid HPT4. In kind it is cell-based, human. Conditions: HPT4, five days; for Efficacy (%): average of three experiments; for IC50: geometric average of three experiments. Here is the method:
as §1, §2

Data set [11] concerns post-tetraploid HPT2 cells. Briefly: Cell proliferation assay, post-tetraploid HPT2. It is filed as cell-based, human. The following applies: HPT2, five days; for Efficacy (%): average of three experiments; for IC50: geometric average of three experiments. Here is the method: as §1, §2
For data set [12], the system named is HCT 116 vs HPT1, -2 and -4. The experiment in a line: Drug sensitivity analysis, HCT116 diploid versus tetraploids. In kind it is cell-based, human. The following applies: for Δeff. (%) / Phenotype (potency): HCT 116 vs HPT1, -2 and -4; for Phenotype (efficacy): HCT 116 vs HPT1, -2 and -4, based on % effect; for Phenotype (potency): 'resistant' indicates that tetraploids are resistant; for ΔpIC50: average log shift in sensitivity between parental and tetraploids. As to the method:
as §2

Data set [13] deals with HCT 116 colon carcinoma cell line. Briefly: Cell proliferation assay (ATPlite), HCT 116. It is filed as cell-based, human. The following applies: for Eff. (%): HCT 116, five days, maximum inhibitory effect, average of three experiments. As to the method: as §2
Data set [14] addresses T1, full-length Aurora B (Homo sapiens, UniProt Q96GD4).
T1 construct: to the kinase domain of TTK and full-length Aurora B; purchased Carna Biosciences, Inc., Kobe, Japan; host or cells: Sf9 insect cells
The experiment in a line: Surface plasmon resonance binding kinetics, Aurora B. Conditions: SPR, geometric average. The source says:
(§3) Originally, the compound was identified in a phenotypic screen for molecules that can induce stem-cell like phenotypes. Later this property was attributed to its ability to inhibit the mitotic kinase Aurora B [39].

Data set [15] concerns MG-63 osteosarcoma cell line. Briefly: Cell proliferation assay (ATPlite), MG-63. In kind it is cell-based, human. Conditions: Homo sapiens, 120 h, 5 day proliferation assay. As to the method: as §2
Data set [16] has as its system DoTc2 4510 cervix carcinoma cell line. Briefly: Cell proliferation assay (ATPlite), DoTc2 4510. In kind it is cell-based, human. Conditions: Homo sapiens, 120 h, 5 day proliferation assay. As to the method: as §2
Data set [17] has as its target T2, TTK kinase domain (Homo sapiens, UniProt P33981).
T2 construct: using bacterially expressed TTK kinase domain and Sf9 insect cell-expressed Aurora B; purchased Carna Biosciences, Inc., Kobe, Japan
T2 sequence (P33981 525-791 limits assumed): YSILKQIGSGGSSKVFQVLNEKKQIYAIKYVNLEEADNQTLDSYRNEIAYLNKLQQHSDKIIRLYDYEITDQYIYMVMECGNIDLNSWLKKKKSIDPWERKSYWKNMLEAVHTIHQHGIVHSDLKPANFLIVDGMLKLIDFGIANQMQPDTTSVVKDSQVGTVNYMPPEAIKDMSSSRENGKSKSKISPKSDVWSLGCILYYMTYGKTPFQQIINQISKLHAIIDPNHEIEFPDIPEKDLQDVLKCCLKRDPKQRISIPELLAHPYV
Briefly: Surface plasmon resonance binding kinetics, TTK. Conditions: SPR, geometric average.
Excerpt: as §3

In data set [18] the test system is patient-derived colorectal carcinoma organoids. The experiment in a line: Organoids drug sensitivity and viability assay. In kind it is cell-based, human. The following applies: Homo sapiens. As to the method: The establishment and characterization of the human colon cancer organoids has been described. The organoids were cultured in drops of Geltrex LDEV-Free Reduced Growth Factor Basement Membrane Matrix (Gibco, cat no. A1413202) in DMEM/F12 medium (Thermo), supplemented with 1% (v/v) penicillin/streptomycin (Gibco), 1% Hepes buffer, pH7.5, 1% L-glutamine (Gibco), 1 μg/mL R-spondin (Sigma), 100 ng/mL Noggin (Peprotech), B27 vitamin A-free (Invitrogen, cat no. 12587010), 1 mM n-acetyl cysteine (Sigma), 10 mM nicotinamide (Sigma), 50 ng/mL EGF (BD Biosciences), 500 nM A83-01 (Tocris), 10 μM SB202190 (Sigma), 10 μM Y-27632 (Sigma) and 10 nM Prostaglandin E2 (Cayman). Medium was refreshed every four days and organoids were splitted by treatment with TryPLE Express (Gibco, cat. no. 12604013).
Organoids were dissociated by TryPLE Express treatment and filtered using a 40 μm nylon cell strainer (Falcon). The organoids were re-suspended in Geltrex at a density of 250,000 cells/mL and seeded in the wells of 96-well plates (Corning, cat no. 3903) at 10 μl per well. Compounds were added four days after plating and 72 hours later viability was determined using Cell-Titer Glo 3D Cell Viability Assay (Promega, Madison USA). Experiments were performed in three biological replicates and technical triplicates were averaged per experiment.

In data set [19] the test system is OVCAR-3 ovary adenocarcinoma cell line. The experiment in a line: Cell proliferation assay (ATPlite), OVCAR-3. In kind it is cell-based, human. Conditions: Homo sapiens, 120 h, 5 day proliferation assay. As to the method: as §2
Data set [20] relates to A-172 glioblastoma cell line. The experiment in a line: Cell proliferation assay (ATPlite), A-172. Conditions: Homo sapiens, 120 h, 5 day proliferation assay. It is filed as cell-based, human. Here is the method:
as §2

Where two headings read alike, the source gives them in different places.

T1 sequence (Q96GD4 whole entry, the tested form may be a part): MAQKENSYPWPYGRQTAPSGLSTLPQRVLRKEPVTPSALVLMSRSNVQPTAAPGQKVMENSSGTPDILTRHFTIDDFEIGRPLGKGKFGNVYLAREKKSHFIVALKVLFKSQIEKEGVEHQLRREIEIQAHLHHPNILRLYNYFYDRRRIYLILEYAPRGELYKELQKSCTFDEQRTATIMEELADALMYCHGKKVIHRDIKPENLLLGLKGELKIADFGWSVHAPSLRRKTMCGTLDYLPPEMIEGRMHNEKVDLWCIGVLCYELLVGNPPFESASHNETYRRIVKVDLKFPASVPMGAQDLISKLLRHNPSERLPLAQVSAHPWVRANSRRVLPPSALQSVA

Turning to `CC(=O)O[C@@]12CO[C@@H]1C[C@H](O)[C@@]1(C)C(=O)[C@H](O)C3=C(C)[C@@H](OC(=O)[C@H](O)[C@@H](NC(=O)OC(C)(C)C)c4ccccc4)C[C@@](O)([C@@H](OC(=O)c4ccccc4)[C@H]21)C3(C)C` [docetaxel], the IC50 in [1] was 4 nM; in data set [2] it was 2 nM; in data set [3], 8 nM; in data set [5] it was 3 nM; in data set [6], 1 nM; in data set [7], 3 nM. Further, the “effect on bone marrow or blood cell count (hematological toxicity)” value in [4] is “hematological toxicity was seen”.

With `Cc1cc(N2CCOCC2)ccc1Nc1nc(NC2CCCCC2)c2[nH]cnc2n1` [MPI-047605], the IC50 is 7330 nM in data set [1]; 234 nM in data set [2]; 220 nM in data set [3]; 208 nM in data set [8]; 448 nM in data set [9] (3 days, geometric average in 44 cell lines); 191 nM in [10]. Further, the IC50 is 199 nM in data set [11]; 8390 nM in data set [5]; 233 nM in data set [13] (HCT 116 near-diploid, five days, geometric average of three experiments (Suppl. Table 2A)); 899 nM in data set [6]; 198 nM in data set [7]. Also, the “Efficacy (%)” value in [8] is 52%; in data set [10], 51%; in data set [11], 46%. The “Δeff. (%)” value in data set [12] is recorded as −22%. Further, the “Phenotype (efficacy)” value in data set [12] is “resistant”. Moreover, in data set [12], the “Phenotype (potency)” value is “sensitive”. For the same compound, the ΔpIC50 in [12] was −0.07. The “Eff. (%)” value in data set [13] came out at 72%. In addition, the ka in data set [14] came to 9550 M⁻¹ s⁻¹. In addition, the kd in data set [14] turned out to be 0.291 s⁻¹.

In the case of `c1nc2nc(Nc3ccc(N4CCOCC4)cc3)nc(NC3CCCCC3)c2[nH]1` [reversine], the IC50 in data set [15] was 434 nM; in [16], 416 nM; in data set [8] (Homo sapiens, 120 h), 208 nM; in [18] (72 h, organoid p14, three days, read-out: IC50), 493 nM; in data set [18] (72 h, organoid p14, three days, read-out: pIC50 (converted)) it was 468 nM; in [18] (72 h, organoid p18, three days, read-out: IC50) it was 285 nM. Besides, the IC50 in data set [18] (72 h, organoid p18, three days, read-out: pIC50 (converted)) was 269 nM; in data set [18] (72 h, organoid p28, three days, read-out: IC50), 757 nM; in data set [18] (72 h, organoid p28, three days, read-out: pIC50 (converted)), 646 nM; in [18] (All organoids, geometric average, read-out: pIC50 (converted)), 437 nM; in data set [9] (5 days, geometric average in 66 cancer cell lines), 239 nM; in data set [10] (Homo sapiens, 120 h) it was 159 nM. Also, the IC50 in data set [11] (Homo sapiens, 120 h) stood at 253 nM; in [19], 441 nM; in [20] it was 158 nM; in data set [13] (Homo sapiens, HCT-116, 120 h, 5 day proliferation assay, HCT 116 (Suppl. Table 1)) it was 175 nM; in data set [13] (Homo sapiens, HCT-116, 120 h, HCT 116 near-diploid, five days, geometric average of three experiments (Suppl. Table 2A)), 242 nM. Also, the kd in data set [17] came to 8.86e-05 s⁻¹; in data set [14], 0.00484 s⁻¹. Also, the “Efficacy (%)” value in [8] worked out at 58%; in data set [10] it was 33%; in [11], 44%. The “Δeff. (%)” value in data set [12] is −32%. The “Phenotype (efficacy)” value in data set [12] is reported as “resistant”. Also, the “Phenotype (potency)” value in data set [12] is “sensitive”. Also, the ΔpIC50 in data set [12] is given as −0.08. In [13], the “Eff. (%)” value is given as 77%.

Values taken from paper PMC5503534, “Stable aneuploid tumors cells are more sensitive to TTK inhibition than chromosomally unstable cell lines” (Oncotarget, 2017).
